Values belong to the molecule of their own block, whether it stands above or below them. Square brackets hold non-standard residues; d marks the D form. Peptide text beside a SMILES is read from it. * marks the point of attachment. ξ: configuration not given here. Cbz = O=C(OCc1ccccc1)*; ξL = CC(C)CC(N)C(=O)O
Legend:
[1] = test system: normal 4-month old female mice; assay: In vivo administration of BT-GSI-XII to normal mice: tolerability, skin, gut toxicity biomarker
Notch target genes = assay: Notch target gene mRNA in bone, brain and gut of BT-GSI treated mice; type: in vivo; conditions: compared to vehicle-treated mice
Text: FIG. 2A. Graphs illustrating the effect on Notch target genes.
FIG. 2B. Graphs illustrating the effect on Notch target genes.
(§1) Referring now to FIG. 1A, the control unconjugated GSI decreased Notch target gene expression (Hes1) in 5TGM1 myeloma cells, but BT-GSI-XII had no effect in vitro. […] (FIG. 1E).

[2] = test system: Notch target gene expression (Hes1); assay: Notch target gene expression in 5TGM1 myeloma cells in vitro; type: cell-based; conditions: for inhibition of Notch target gene expression: compounds pre-incubated at low pH to mimic acidic conditions in resorption sites, myeloma cells; for Notch target gene expression (Hes1-Hey1): in vitro, 5TGM1 myeloma cells, not pre-incubated
Text: FIG. 1A. Graphs illustrating the effect on Notch target gene expression. In vitro, the control unconjugated GSI decreased Notch target gene expression (Hes1-Hey1) but BT-GSI-XII had no effect.
FIG. 1B. A graph illustrating the effect on Notch target gene expression.
as §1

[3] = test system: normal 4-month old female mice; assay: In vivo administration of BT-GSI-XII to normal mice: BMD, microCT, serum bone markers, osteoclasts/osteoblasts, bone cytokine and osteoblast marker mRNA
Text: Daily injections of PTH (iPTH) are thought to cause bone anabolism by increasing osteoblast number and function. However, iPTH can also increase bone resorption, which can limit bone gain. iPTH activates Notch signaling in osteocytes; and bone-targeted Notch inhibition using a γ-secretase inhibitor (GSI) conjugated to an alendronate-modified bone-targeting molecule (BT-GSI) decreases Notch signaling in bone, and reduces CTX (−40%) while preserving bone formation, leading to increases in BMD (4-7%) and cancellous bone volume (BV/TV; 30%).

[4] = test system: Notch target genes Hes1/5/7 and Hey1/L; assay: Co-administration of BT-GSI with iPTH in mice: Notch target gene expression in bone, brain, gut; type: in vivo; conditions: 2 wks
Protocol: (§2) To investigate whether a combination of iPTH (anabolic) and BT-GSI (anti-catabolic) increases bone mass to a higher extent than either agent alone, BT-GSI (5 mg/kg, 3×/wk) or saline was co-administered with iPTH (100 ng/g/day) or vehicle for 2 wks to 4-mo-old mice (n=10/group).

Hes1/5 expression = assay: Ex vivo whole bone organ cultures, Hes1/5 expression; type: cell-based; conditions: compounds non-pre-incubated
Text: FIG. 1C. A schematic drawing illustrating an exemplary ex vivo system.
as §1

4-mo-old mice = assay: Co-administration of BT-GSI with daily PTH injections (iPTH) in mice: bone mass, resorption and formation; type: in vivo
Protocol: as §2
(§3) No changes were found in M-Csf expression. Additionally, unconjugated GSI reduced Rankl-induced osteoclast differentiation in vitro with an EC50˜0.1 μM (FIG. 12D). Further, the bone-targeting molecule alone required a dose 10 times higher than GSI to decreased osteoclastogenesis. Referring now to FIG. 13, co-administration of BT-GSI decreased iPTH-induced elevated serum P1NP (e.g., about 30% decrease); however, the co-administration of BT-GSI maintained the iPTH-induced elevated bone formation rate (20%) and osteoblast number/surface (20%) in cancellous bone (FIG. 13B-C). Further, mice receiving iPTH alone or combined with BT-GSI induced elevated mRNA levels of Alp1, Runx2, Bglap, and Wnt target genes, and reduced mRNA level of Sost in bone (FIG. 13 D-E).

[5] = test system: Rankl-induced osteoclast differentiation; assay: Rankl-induced osteoclast differentiation in vitro; type: cell-based; conditions: read-out: EC50, reduction of Rankl-induced osteoclast differentiation
Protocol: as §3

[6] = 5 μg/g, 3×wk, 2 weeks, normal 4-month old female mice
[7] = serum, 5 μg/g, 3×wk, 2 weeks, mice
[8] = single agent (iPTH 100 ng/g/day or BT-GSI 5 mg/kg 3×/wk)
[9] = BT-GSI 5 mg/kg 3×/wk co-administered with iPTH, 2 wks
[10] = BT-GSI co-administered with iPTH
[11] = BT-GSI co-administered with iPTH, cancellous bone

Molecule: CC[C@H](C)[C@H](NC(=O)OCc1ccccc1)C(=O)NC(/C=N/N(C)CCCC(=O)NC(P(=O)(O)O)P(=O)(O)O)CC(C)C (stereo partly drawn) [BT-GSI-XII]
- skin issues [1, 6]: no skin issues were observed
- tolerability [1, 6]: well tolerated
- Apsidin expression in the gut, a biomarker of gastrointestinal toxicity ([1]; treated mice vs vehicle, gut): did not increase
- Notch target gene mRNA expression in brain or gut (Notch target genes; brain, gut): not in brain or gut
- Notch target gene (Hey2, Hes5, Hes7, HeyL) mRNA expression in bone (Notch target genes; whole bone preparations): decreases
- inhibition of Notch target gene expression [2]: equal inhibition
- Notch target gene expression (Hes1-Hey1) [2]: no effect
- higher femoral BMD compared to control mice ([3]; 5 μg/g, 3×wk, 2 weeks, mice): 4%
- higher spinal BMD compared to control mice ([3]; 5 μg/g, 3×wk, 2 weeks, mice): 7%
- higher total BMD compared to control mice ([3]; 5 μg/g, 3×wk, 2 weeks, mice): 3%
- increased cancellous bone volume (BV/TV) compared to vehicle-treated mice ([3]; microCT analysis): 25%
- increased trabecular thickness compared to vehicle-treated mice ([3]; microCT analysis): 10%
- increased cancellous bone volume (BV/TV) compared to vehicle-treated mice ([3]; microCT analysis, listed as BT-GSI): 30%
- circulating levels of the bone formation marker P1NP [3, 7]: did not affect
- decrease of serum CTX, a marker of bone resorption [3, 7]: 40%
- increases in BMD ([3]; summary statement, sites not named): 4-7%
- bone formation and mineral apposition rates ([3]; treated mice): remained unchanged
- decrease in the bone surface covered by osteoclasts compared to control mice ([3]; treated mice): 50%
- number of osteoblasts ([3]; treated mice): remained unchanged
- Opg mRNA expression in bone ([3]; treated mice vs vehicle): increased
- Rankl/Opg ratio in bone ([3]; treated mice vs vehicle): decreasing
- Opg mRNA expression in bone ([3]; treated mice vs vehicle, listed as BT-GSI): upregulated
- expression of osteoblast markers, including Wnt target genes and the osteocyte-derived Sost/Sclerostin ([3]; treated mice, bone): remained unchanged
- bone formation and mineral apposition rates ([3]; treated mice, listed as BT-GSI): preserving
- iPTH-induced elevated expression of Hes1/5/7 and Hey1/L in bone ([4]; BT-GSI 5 mg/kg 3×/wk co-administered with iPTH 100 ng/g/day): decreased the iPTH-induced elevated expression of Hes1/5/7 and Hey1/L to a level comparable to the control mice
- expression of Notch target genes in brain or gut [4, 8]: remained unchanged
- expression of Notch target genes in brain or gut ([4]; the combination of iPTH and BT-GSI): remained unchanged
- Hes1/5 expression (Hes1/5 expression): similarly decreased
- increase in femoral BMD (4-mo-old mice; [9]): 17%
- increase in spinal BMD (4-mo-old mice; [9]): 7%
- increase in total BMD (4-mo-old mice; [9]): 10%
- additional increase in cancellous BV/TV (L4 and distal femur) compared to the iPTH-induced increase (4-mo-old mice; [10]): 25%
- additional increase in trabecular thickness compared to the iPTH-induced increase (4-mo-old mice; [10]): 25%
- decrease of iPTH-induced elevated serum P1NP (4-mo-old mice; [10]): about 30%
- effect on iPTH-induced increase in cortical bone area (4-mo-old mice; [10]): did not alter
- iPTH-induced elevated Rankl/Opg expression ratio in bone (4-mo-old mice; [10]): remained unchanged
- serum CTX level (4-mo-old mice; [10]): less than those exhibited in control mice
- iPTH-induced elevated bone formation rate (4-mo-old mice; [11]): maintained
- iPTH-induced elevated osteoblast number/surface (4-mo-old mice; [11]): maintained
- osteoclast number/surface level (4-mo-old mice; [11]): less than those exhibited in control mice
- mRNA level of Sost in bone (4-mo-old mice; iPTH combined with BT-GSI): reduced
- mRNA levels of Alp1, Runx2, Bglap, and Wnt target genes in bone (4-mo-old mice; iPTH combined with BT-GSI): elevated

- EC50 [5]: ~100 nM
Molecule: CC[C@H](C)[C@H](NC(=O)OCc1ccccc1)C(=O)N[C@H](C=O)CC(C)C [GSI-XII, reference compound] (Cbz-Ile-Leu-aldehyde)
- Notch target gene expression (Hes1-Hey1) [2]: decreased

Molecule: CC[C@H](C)[C@H](NC(=O)OCc1ccccc1)C(=O)NC(C=O)CC(C)C (stereo partly drawn) [GSI-XII, reference compound] (Cbz-Ile-[ξL]-aldehyde)
- inhibition of Notch target gene expression [2]: equal inhibition
- Hes1/5 expression (Hes1/5 expression): similarly decreased

B1: iPTH: daily injections of PTH (parathyroid hormone) (protein, UniProt P01270 32-115, looked up)
Parathyroid hormone: SVSEIQLMHNLGKHLNSMERVEWLRKKLQDVHNFVALGAPLAPRDAGSQRPRKKEDNVLVESHEKSLGEADKADVNVLTKAKSQ
modifications: Parathyroid hormone
- expression of the Notch target genes Hes1/5/7 and Hey1/L in bone ([4]; iPTH 100 ng/g/day alone): increased
- expression of Notch target genes in brain or gut [4, 8]: remained unchanged
- increase in femoral BMD (4-mo-old mice; iPTH 100 ng/g/day alone, 2 wks): 13%
- increase in total BMD (4-mo-old mice; iPTH 100 ng/g/day alone, 2 wks): 7%
- spinal BMD change (4-mo-old mice; iPTH 100 ng/g/day alone, 2 wks): 0%
- iPTH-induced elevated Rankl/Opg expression ratio in bone (4-mo-old mice; iPTH alone): 1.5 fold
- iPTH-induced elevated serum CTX (4-mo-old mice; iPTH alone): 30%
- iPTH-induced increase in cortical bone area (4-mo-old mice; iPTH alone): 8%
- mRNA level of Sost in bone (4-mo-old mice; iPTH alone): reduced
- mRNA levels of Alp1, Runx2, Bglap, and Wnt target genes in bone (4-mo-old mice; iPTH alone): elevated
- serum P1NP (4-mo-old mice; iPTH alone): elevated
- iPTH-induced elevated bone formation rate (4-mo-old mice; iPTH alone, cancellous bone): 20%
- iPTH-induced elevated osteoblast number/surface (4-mo-old mice; iPTH alone, cancellous bone): 20%
- iPTH-induced elevated osteoclast number/surface (4-mo-old mice; iPTH alone, cancellous bone): 25%
